Experimental data from patent publication US10570099B2, “Salts of an epidermal growth factor receptor kinase inhibitor” (Celgene CAR LLC, priority 2012, dated 2020).

Test: 1 week stability of primary screen salts at 40° C./75% RH and 80° C. (open vials, XRPD)
Format: physicochemical
Method: (open vials). TGA was carried out after the stability studies for samples containing sufficient material.

| SMILES | Stability 40° C./75% RH (open conditions) | Stability 80° C. (open conditions) |
| --- | --- | --- |
| C=CC(=O)Nc1cccc(Nc2nc(Nc3ccc(N4CCN(C(C)=O)CC4)cc3OC)ncc2C(F)(F)F)c1.O=S(=O)(O)c1ccccc1 [Besylate (1 equiv.) Form II] | No form change, some | No form change, some |
| C=CC(=O)Nc1cccc(Nc2nc(Nc3ccc(N4CCN(C(C)=O)CC4)cc3OC)ncc2C(F)(F)F)c1.O=S(=O)(O)c1ccccc1.O=S(=O)(O)c1ccccc1 [Besylate (2 equiv.) Form II] | No form change, | No form change, |
| C=CC(=O)Nc1cccc(Nc2nc(Nc3ccc(N4CCN(C(C)=O)CC4)cc3OC)ncc2C(F)(F)F)c1.O=S(=O)(O)c1ccc2ccccc2c1.O=S(=O)(O)c1ccc2ccccc2c1 [Naphthalene-2-sulfonic acid (2 eq.) Form IV] | Converted to Form II, | Converted to Form II, |
| C=CC(=O)Nc1cccc(Nc2nc(Nc3ccc(N4CCN(C(C)=O)CC4)cc3OC)ncc2C(F)(F)F)c1.O=S(=O)(O)c1ccc2ccccc2c1.O=S(=O)(O)c1ccc2ccccc2c1 [Naphthalene-2-sulfonic acid (2 eq.) Form I] | No form change, poor | No form change, poor |
| C=CC(=O)Nc1cccc(Nc2nc(Nc3ccc(N4CCN(C(C)=O)CC4)cc3OC)ncc2C(F)(F)F)c1.O=S(=O)(O)c1ccc2ccccc2c1.O=S(=O)(O)c1ccc2ccccc2c1 [Naphthalene-2-sulfonic acid (2 eq.) Form III] | Converted to Form II, | Converted to Form II, |
| Br.Br.C=CC(=O)Nc1cccc(Nc2nc(Nc3ccc(N4CCN(C(C)=O)CC4)cc3OC)ncc2C(F)(F)F)c1 [HBr (2 eq.) Form II] | Changed to Form I, | Potential new form, |
| C=CC(=O)Nc1cccc(Nc2nc(Nc3ccc(N4CCN(C(C)=O)CC4)cc3OC)ncc2C(F)(F)F)c1.Cc1ccc(S(=O)(=O)O)cc1 [Tosylate (1 equiv.) Form I] | No form change, | No form change, |
| C=CC(=O)Nc1cccc(Nc2nc(Nc3ccc(N4CCN(C(C)=O)CC4)cc3OC)ncc2C(F)(F)F)c1.O=S(=O)(O)c1cccc2c(S(=O)(=O)O)cccc12 | No form change, | Possible form change, |
| C=CC(=O)Nc1cccc(Nc2nc(Nc3ccc(N4CCN(C(C)=O)CC4)cc3OC)ncc2C(F)(F)F)c1.Cl [Hydrochloride (1 equiv.) Form I] | No form change, | No form change, |
| C=CC(=O)Nc1cccc(Nc2nc(Nc3ccc(N4CCN(C(C)=O)CC4)cc3OC)ncc2C(F)(F)F)c1.O=C(O)C(=O)O [Oxalate Form I] | No form change, | No form change, |
| C=CC(=O)Nc1cccc(Nc2nc(Nc3ccc(N4CCN(C(C)=O)CC4)cc3OC)ncc2C(F)(F)F)c1.O=C(O)/C=C\C(=O)O [Maleate Form III] | No clear form change | No clear form change |
| C=CC(=O)Nc1cccc(Nc2nc(Nc3ccc(N4CCN(C(C)=O)CC4)cc3OC)ncc2C(F)(F)F)c1.Cl.Cl [Hydrochloride (2 equiv.) Form I] | No form change, | No form change, |
| C=CC(=O)Nc1cccc(Nc2nc(Nc3ccc(N4CCN(C(C)=O)CC4)cc3OC)ncc2C(F)(F)F)c1.CC1(C)C2CCC1(CS(=O)(=O)O)C(=O)C2 [Camphor-10-sulfonic acid (1 eq.) Form II] |  | Converted to Form I, |
| C=CC(=O)Nc1cccc(Nc2nc(Nc3ccc(N4CCN(C(C)=O)CC4)cc3OC)ncc2C(F)(F)F)c1.CC1(C)C2CCC1(CS(=O)(=O)O)C(=O)C2.CC1(C)C2CCC1(CS(=O)(=O)O)C(=O)C2 [Camphor-10-sulfonic acid (2 eq.) Form I] | Amorphous | Amorphous |
